Results taken from publication PMC9254721, “Global update on the susceptibilities of human influenza viruses to neuraminidase inhibitors and the cap-dependent endonuclease inhibitor baloxavir, 2018–2020” (Antiviral research, 2022).

How the values were obtained:
[1] = tested on: B/Yamagata-lineage virus neuraminidase (NA); assay type: biochemical, influenza B/Yamagata-lineage virus
A(H1N2)v viruses = assay type: cell-based
influenza viruses = assay type: cell-based, influenza virus

CC(=O)N[C@H]1[C@H]([C@H](O)[C@H](O)CO)OC(C(=O)O)=C[C@@H]1N=C(N)N [Zanamivir, zanamivir]
inhibition phenotype (NI/RI/HRI) [1]: RI (key: normal inhibition (NI) is a <5-fold increase in the NAI IC50; RI is a 5- to 50-fold increase; HRI is a >50-fold increase)

COC(=O)OCOc1c2n(ccc1=O)N([C@@H]1c3ccccc3SCc3c1ccc(F)c3F)[C@@H]1COCCN1C2=O [baloxavir, baloxavir marboxil]
baloxavir susceptibility (A(H1N2)v viruses): susceptible | fold increase compared to the respective median EC50 (influenza viruses): < 3 fold
